Assay results reported in the supplement of paper PMC10307832.

Legend:
Test in all cases: relative viability (nuclei count vs DMSO), 5 days (fraction); higher = more cells survive
BAY61-3606 + Trametinib = compound: COC1=C(C=C(C=C1)C2=CC3=NC=CN3C(=N2)NC4=C(C=CC=N4)C(=O)N)OC [BAY61-3606] + CC(=O)Nc1cccc(-n2c(=O)n(C3CC3)c(=O)c3c(Nc4ccc(I)cc4F)n(C)c(=O)c(C)c32)c1 [Trametinib] (partner 0.02 µM)
Procedure, shortened: (§1)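 Cells from lung cancer lines were seeded into 1536-well plates and, one day later, dosed by pin tool. Treatments were either a single drug or a fixed dose of an anchor drug with five library-drug doses (not always all listed) in √10 steps. After 5 days, nuclei were stained in a one-step fixation (final 0.05% Triton X-100, 1% formaldehyde, 1 ug/ml Hoechst) and counted on 4× images, and relative viability is the treated-to-vehicle nuclei ratio, as the median of duplicate plates.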

BAY61-3606 + Luminespib = compound: COC1=C(C=C(C=C1)C2=CC3=NC=CN3C(=N2)NC4=C(C=CC=N4)C(=O)N)OC [BAY61-3606] + CCNC(=O)c1noc(-c2cc(C(C)C)c(O)cc2O)c1-c1ccc(CN2CCOCC2)cc1 [Luminespib] (partner 0.01 µM)
Procedure, shortened: as §1

Doxorubicin + Pictilisib = compound: COc1cccc2c1C(=O)c1c(O)c3c(c(O)c1C2=O)C[C@@](O)(C(=O)CO)C[C@@H]3O[C@H]1C[C@H](N)[C@H](O)[C@H](C)O1 [Doxorubicin] + CS(=O)(=O)N1CCN(Cc2cc3nc(-c4cccc5[nH]ncc45)nc(N4CCOCC4)c3s2)CC1 [Pictilisib] (partner 1 µM)
Procedure, shortened: as §1

Doxorubicin + Olaparib = compound: COc1cccc2c1C(=O)c1c(O)c3c(c(O)c1C2=O)C[C@@](O)(C(=O)CO)C[C@@H]3O[C@H]1C[C@H](N)[C@H](O)[C@H](C)O1 [Doxorubicin] + O=C(c1cc(Cc2n[nH]c(=O)c3ccccc23)ccc1F)N1CCN(C(=O)C2CC2)CC1 [Olaparib] (partner 8 µM)
Procedure, shortened: as §1

| Cell Line | relative viability (BAY61-3606 + Trametinib; first compound 0.02 µM) | relative viability (BAY61-3606 + Trametinib; first compound 0.06325 µM) | relative viability (BAY61-3606 + Trametinib; first compound 0.2 µM) | relative viability (BAY61-3606 + Trametinib; first compound 0.6325 µM) | relative viability (BAY61-3606 + Trametinib; first compound 2 µM) | relative viability (BAY61-3606 + Luminespib; first compound 0.02 µM) | relative viability (BAY61-3606 + Luminespib; first compound 0.2 µM) | relative viability (BAY61-3606 + Luminespib; first compound 0.6325 µM) | relative viability (BAY61-3606 + Luminespib; first compound 2 µM) | relative viability (Doxorubicin + Pictilisib; first compound 0.001 µM) | relative viability (Doxorubicin + Pictilisib; first compound 0.003162 µM) | relative viability (Doxorubicin + Pictilisib; first compound 0.01 µM) | relative viability (Doxorubicin + Pictilisib; first compound 0.03162 µM) | relative viability (Doxorubicin + Pictilisib; first compound 0.1 µM) | relative viability (Doxorubicin + Olaparib; first compound 0.001 µM) | relative viability (Doxorubicin + Olaparib; first compound 0.003162 µM) | relative viability (Doxorubicin + Olaparib; first compound 0.01 µM) | relative viability (Doxorubicin + Olaparib; first compound 0.03162 µM) | relative viability (Doxorubicin + Olaparib; first compound 0.1 µM) | relative viability (BAY61-3606 + Luminespib; first compound 0.06325 µM) |
| --- | --- | --- | --- | --- | --- | --- | --- | --- | --- | --- | --- | --- | --- | --- | --- | --- | --- | --- | --- | --- |
| HCC-44 | 1.04 | 1.09 | 1 | 1.07 | 1.2 | 1.1 | 1.17 | 1.24 | 0.997 | 0.722 | 0.66 | 0.58 | 0.531 | 0.527 | 0.929 | 1 | 0.997 | 1.01 | 0.993 | – |
| HCC-78 | 0.763 | 0.745 | 0.738 | 0.836 | 0.859 | – | – | – | – | 0.208 | 0.216 | 0.219 | 0.196 | 0.0644 | 0.866 | 0.994 | 1.04 | 0.799 | 0.701 | – |
| HCC-366 | 0.345 | 0.319 | 0.327 | 0.268 | 0.21 | – | – | – | – | 0.155 | 0.182 | 0.119 | 0.162 | 0.162 | 0.33 | 0.348 | 0.361 | 0.209 | 0.25 | – |
| HCC-827 | 0.511 | 0.585 | 0.539 | 0.583 | 0.608 | 0.492 | 0.572 | 0.743 | 0.31 | 0.851 | 1.01 | 0.985 | 0.993 | 0.935 | 0.653 | 0.65 | 0.66 | 0.62 | 0.579 | 0.587 |
| HOP-62 | – | 0.416 | 0.414 | 0.456 | 0.336 | 0.919 | 0.83 | 0.933 | 0.651 | 0.315 | 1.03 | 0.782 | 0.553 | 0.717 | 0.396 | 0.56 | 0.365 | 0.42 | 0.296 | 1.07 |
| IA-LM | – | – | – | – | – | – | – | – | – | 0.287 | 0.341 | 0.254 | 0.0936 | 0.0491 | 0.796 | 0.889 | 0.954 | 0.754 | 0.673 | – |
| LC-2-ad | 0.911 | 0.961 | 0.979 | 0.942 | 0.902 | 1.2 | 1.1 | 0.963 | 0.646 | 0.496 | 0.406 | 0.417 | 0.359 | 0.227 | 0.343 | 0.679 | 0.707 | 0.707 | 0.696 | 0.98 |
| LCLC-97TM1 | 0.207 | 0.195 | 0.203 | 0.187 | 0.205 | 0.793 | 0.879 | 0.794 | 0.765 | 0.145 | 0.24 | 0.225 | 0.158 | 0.187 | 0.398 | 0.514 | 0.438 | 0.234 | 0.394 | 0.875 |
| LCLC-103H | 0.708 | 0.715 | 0.666 | 0.654 | 0.65 | 0.989 | 0.969 | 1.06 | 0.737 | 0.618 | 0.677 | 0.569 | 0.588 | 0.578 | 0.726 | 0.82 | 0.726 | 0.799 | 0.769 | 1.06 |
